The subject of one test is ERK1/2. Kind of test: ERK1/2 activation in BAEC (western blot). The class given is cell-based, bovine. Here is the method:
Effect of QK and VEGF15 on ERK1/2 activation. Serum deprived BAEC were treated with QK (a) or with VEGF 15 (b) in absence or in presence of VEGF165 (100 ng/ml) for 15 minutes at 37° C. and then dissolved in RIPA-SDS buffer. Total ERK1/2 and the phosphorylated form of ERK1/2 were visualized by specific antibodies.
Western blot. Cells were plated on six-well dishes and serum starved overnight. On the next day, cells were treated with different amount of peptide in absence or in presence of VEGF165 for 15 minutes at 37° C. and then dissolved in RIPA-SDS buffer (50 mM Tris-HCl (pH 7.5), 150 mM NaCl, 1% NP-40, 0.25% deoxycholate, 9.4 mg/50 ml sodium orthovanadate, […]). In some experiments, total KDR and Flt-1 were immunoprecipitated from an equal amount of whole-cell protein extracts using protein A/G agarose beads conjugated with antibodies raised against total KDR or Flt-1 (R&D). Proteins from whole-cell extracts or immunocomplexes were resolved by PAGE and transferred to nitrocellulose. Total extracellular signal-regulated kinase 1 and 2 (ERK1/2), serine-tyrosin phosphorylated ERK1/2, phospho-tyrosine (Cell signaling) and phospho-RB (p-RB) (Santacruz) were visualized by specific antibodies, anti-rabbit HRP-conjugated secondary antibody (Santacruz) and standard chemiluminescence (Pierce).
Activation of the proliferative intracellular pathways. We then explored whether QK is able to start the pathways of endothelial cell activation. It is well established that angiogenesis modulate by VEGF is largely ERK1/2 dependent, leading to DNA synthesis and cell proliferation (7). Accordingly, we assessed the effects of QK on this kinase. […] To verify whether ERK1/2 activation to QK results in cell proliferation, we studied cell proliferation indicators such as cell number, DNA synthesis and cyclin activation.
For orientation: A western blot detects proteins with antibodies after separation by electrophoresis.

The subject of the next test is BAEC. Put plainly: [3H]-thymidine incorporation (DNA synthesis). The format is cell-based, bovine. To be noted: 24 hours. On the procedure: (§1) Effect of QK on cell proliferation. a) DNA synthesis. BAEC were incubated in DMEM with [^3H]-thymidine and QK in absence or in presence of VEGF165 (100 ng/ml). After 24 hours cells were fixed and lysed. Scintillation liquid was added and [^3H]-thymidine incorporation was evaluated. b) Cell proliferation. BAEC were stimulated with the indicated amount of QK in absence or in presence of VEGF165 (100 ng/ml). Cell number was determined at 24 hours after stimulation. c) RB phosphorylation. p-RB was evaluated at 12 and 18 hours after stimulation with QK (10^-6M), VEGF165 (100 ng/ml) and VEGF 15 (10^−6 M).
[^3H]-thymidine incorporation. Cells were serum starved for 24 hours and then incubated in DMEM with [^3H]-thymidine (Amersham) and QK alone (10^−12-10^−6 M) or with a combination of QK and VEGF165. After 24 hours cells were fixed with trichloracetic acid ([…]) and dissolved in NaOH 1M. Scintillation liquid was added and thymidine incorporation was evaluated with a beta counter.
On the technique in general: Uptake of a labelled nucleoside into DNA is a usual measure of proliferation.

Another test relates to RB. Kind of test: RB phosphorylation (western blot). The format is cell-based, bovine. To be noted: 12 and 18 hours; QK 10^-6 M, VEGF165 100 ng/ml, VEGF 15 10^-6 M. Here is the method: as §1
Cells proliferation assay. Cells were seeded at a density of 10000 per well in six well plates, serum starved overnight and then stimulated with QK (10-12 to 10^−6 M) in absence or in presence of VEGF165. Cell number was determined at 24 hours after stimulation. The p-RB, was evaluated by western blot 12 and 18 hours after stimulation with QK (10^−6 M), VEGF165 and VEGF 15 (10^−6 M).

Another test deals with WKY rats. Kind of test: Ischemic hindlimb model, digital angiographies and blood flow determination. The format is in vivo, rat. To be noted: 14 days.

Turning to KLTWQELYQLKYKGI [QK], the “ERK1/2 activation in presence of VEGF” value in the test with ERK1/2 (BAEC, with VEGF165 100 ng/ml, 15 minutes) is given as “additive to VEGF”. Further, the ERK1/2 activation result in the test on ERK1/2 (serum deprived BAEC, 15 minutes at 37° C.) is “leaded to ERK1/2 activation in a dose dependent fashion”. The “DNA synthesis ([3H]-thymidine incorporation)” value in the test on BAEC (peptide alone) is reported as “increased DNA synthesis at any dosages”. The “DNA synthesis in presence of VEGF” value in the test with BAEC (with VEGF165 100 ng/ml) is listed as “the effect was enhanced in presence of VEGF”. Moreover, the “phosphorylation of the cyclin RB” value in the test on RB is listed as “enhanced phosphorylation of the cyclin RB”. The “BEADS Ischemic to non ischemic” value in the test on WKY rats (dyed beads dilution, muscle ratio, infusion 10^-7 M) was determined as 0.98 ± 0.12. In the test on WKY rats (ischemic hindlimb, chronic intrafemoral artery infusion 10^-7 M), the “ANGIOGRAPHY Number of TFC” value is given as 16 ± 2.

(Values after patent US20090305994A1, “Compounds Modulating Vegf Receptor and Uses Thereof” (priority 2005, published 2009).)
